Test results reported in patent publication US6310213A, “Ethanesulfonyl-piperidine derivatives” (Hoffmann-La Roche Inc., priority 1999, dated 2001).
Values joined by “and” are separate entries in the source; they are usually repeats but may differ in a detail not shown here. Equal values may be shown once.

Tests used:
[1] = molecular target: T1, NMDA NR1 + NR2B (Homo sapiens, UniProt Q05586+Q13224); assay: Block of recombinant NMDA receptor subtype NR1 + NR2B expressed in Xenopus oocytes; type: cell-based
T1 construct: expressed in transfected cells; host or cells: Xenopus oocytes
Description: (§1) ^c Indicates the ability to block selectively recombinant NMDA receptor
(§2) subtypes expressed in Xenopus oocytes.

[2] = molecular target: α1-adrenergic receptors; assay: 3H-Prazosin binding; parameters: species or system rat (Male Fullinsdorf albino rats); details: rat brain membranes, 0.2 nM 3H-Prazosine, 30 minutes at room temperature, pH 7.4; read-out: Inhibition of [3H]-Prazosin binding IC50
Procedure: ^b Inhibition of binding indicates affinity for α1
(§3) Male Fullinsdorf albino rats weighing between 150-200 g were used. Membranes were prepared by homogenization of the whole brain minus cerebellum and medulla oblongata with a Plytron (10.000 rpm, 30 seconds), in 25 volumes of a cold Tris-HCl 50 mM, EDTA 10 mM, pH 7.1 buffer. The homogenate was centrifuged at 48.000 g for 10 minutes at 4° C. The pellet was resuspended using the Polytron in the same volume of buffer and the homogenate was incubated at 37° C. for 10 minutes. After centrifugation the pellet was homogenized in the same buffer and frozen at -80° C. for at least 16 hours but not more than 10 days. For the binding assay the homogenate was thawed at 37° C., centrifuged and the pellet was washed three times as above in a Tris-HCl 15mM, pH 7.4 cold buffer. The final pellet was resuspended in the same buffer and used at a final concentration of 200 mg of protein/ml.
3H-Prazosin binding experiments were performed using a Tris-HCl 50 mM, pH 7.4 buffer. For displacement experiments 0.2 nM of 3H-Prazosine were used and non specific binding was measured using […] of Chlorpromazine. The incubation time was 30 minutes at room temperature and the assay was stopped by filtration on Whatman GF/B glass fiber filters (Ubrifilter-96, Canberra Packard S. A., Zurich, Switzerland). The filters were washed 5 times with cold buffer. The radioactivity on the filter was counted on a Packard Top-count microplate scintillation counter after addition of […] of microscint 40 (Canberra Packard S. A., Zurich, Switzerland). The effects of compounds were measured using a minimum of 8 concentrations and repeated at least once. The pooled normalized values were analyzed using a non-linear regression calculation program which provide IC50 with their relative upper and lower 95% confidence limits (RS1, BBN, USA).

[3] = molecular target: T2, recombinant human ERG potassium channels (Homo sapiens, UniProt Q12809); assay: Inhibition of the HERG K+ channel, whole-cell patch-clamp, transfected CHO cells; type: cell-based; details: concentrations above 10 μM not tested
T2 construct: expressed in transfected cells; host or cells: CHO cells, stably transfected with pcDNA3-HERG
Description: Method 3 Methods for Studying the Inhibition of the HERG K^+ Channel CHO cells were stably transfected by a pcDNA3-HERG expression vector containing a SV40-neo cassette for selection. Cells were thinly plated into 35 mm dishes and used for the electrophysiological experiment 1/2-3 d later. […] A 10-mM stock solution of the test compound was made from pure DMSO. Test solution were made by at least 1000-fold dilution of the stock solution into the extracellular saline. […] The whole-cell configuration of the patch-clamp technique was used for the experiments. […] The membrane current was recorded for at least 3 min (18 stimuli) before compound application (control), and then for another two 3-min intervals in presence of two different concentrations of the compound. The current amplitudes (Itest) at the end of each compound application interval were divided by the mean current amplitude (Icontrol) during the initial control period to calculate the percentage effect of the compound: effect (%)=(1-Itest /Icontrol)·100. […] If after the first experiment the IC50 turned out to lie outside the range between the two chosen concentrations the concentrations were changed to bracket the IC50 in the following experiments. The compound was tested on at least three cells.

[4] = tested on: i.c.v. NMDA-induced convulsions in mice; assay: Block of i.c.v. NMDA-induced convulsions in mice; type: in vivo; details: Mus musculus, iv
Description: |^d Indicates potency in mg/kg i.v. to block i.c.v. NMDA-induced | convulsions in mice.

[5] = molecular target: T3, NMDA NR1 + NR2A (Homo sapiens, UniProt Q05586+Q12879); assay: Block of recombinant NMDA receptor subtype NR1 + NR2A expressed in Xenopus oocytes; type: cell-based
T3 construct: expressed in transfected cells; host or cells: Xenopus oocytes
Description: as §1, §2

[6] = molecular target: T4, NMDA NR2B subunit containing receptors (Rattus norvegicus, UniProt P35439+Q00960); assay: 3H [R-(R*,S*)]-α-(4-Hydroxy-phenyl)-β-methyl-4-(phenyl-methyl)-1-piperidine propanol binding; parameters: species or system rat (Male Fullinsdorf albino rats); details: rat brain membranes, 5 nM radioligand, 2 hours at 4° C., pH 7.4; read-out: Inhibition of 3H [R-(R*, S*)]-α-(4-Hydroxy-phenyl)-β-methyl-4-(phenyl-methyl)-1-piperidine propanol binding IC50
T4 construct: Membranes were prepared by homogenization of the whole brain minus cerebellum and medulla oblongata; from tissue; host or cells: rat whole brain minus cerebellum and medulla oblongata, membranes
Procedure: ^a Inhibition of binding indicates affinity for NMDA NR2B subunit
3H [R-(R*,S*)]-α-(4-Hydroxy-phenyl)-β-methyl-4-(phenyl-methyl)-1-piperidine propanol) binding
as §3, with “Polytron” for “Plytron”, “-100°” for “-80°”, “5 mM,” for “15mM,”, “μg” for “mg”
3H [R-(R*,S*)]-α-(4-Hydroxy-phenyl)-β-methyl-4-(phenyl-methyl)-1-piperidine propanol binding experiments were performed using a Tris-HCl 50 mM, pH 7.4 buffer. For displacement experiments 5 nM of 3H [R-(R*,S*)]-α-(4-Hydroxy-phenyl)-β-methyl-4-(phenyl-methyl)-1-piperidine propanol were used and non specific binding was measured using 10 μM of tetrahydroisoquinoline and usually it accounts for 10% of the total. The incubation time was 2 hours at 4° C. and the assay was stopped by filtration on Whatmann GF/B glass fiber filters (Unifilter-96, Packard, Zurich, Switzerland). The filters were washed 5 times with cold buffer. The radioactivity on the filter was counted on a Packard Top-count microplate scintillation counter after addition of […] of microscint 40 (Canberra Packard S. A., Zurich, Switzerland).
The effects of compounds were measured using a minimum of 8 concentrations and repeated at least once. The pooled normalized values were analyzed using a non-linear regression calculation program which provide IC50 with their relative upper and lower 95% confidence limits (RS1, BBN, USA).

T1 sequence (Q13224 27-1484, other chains not shown): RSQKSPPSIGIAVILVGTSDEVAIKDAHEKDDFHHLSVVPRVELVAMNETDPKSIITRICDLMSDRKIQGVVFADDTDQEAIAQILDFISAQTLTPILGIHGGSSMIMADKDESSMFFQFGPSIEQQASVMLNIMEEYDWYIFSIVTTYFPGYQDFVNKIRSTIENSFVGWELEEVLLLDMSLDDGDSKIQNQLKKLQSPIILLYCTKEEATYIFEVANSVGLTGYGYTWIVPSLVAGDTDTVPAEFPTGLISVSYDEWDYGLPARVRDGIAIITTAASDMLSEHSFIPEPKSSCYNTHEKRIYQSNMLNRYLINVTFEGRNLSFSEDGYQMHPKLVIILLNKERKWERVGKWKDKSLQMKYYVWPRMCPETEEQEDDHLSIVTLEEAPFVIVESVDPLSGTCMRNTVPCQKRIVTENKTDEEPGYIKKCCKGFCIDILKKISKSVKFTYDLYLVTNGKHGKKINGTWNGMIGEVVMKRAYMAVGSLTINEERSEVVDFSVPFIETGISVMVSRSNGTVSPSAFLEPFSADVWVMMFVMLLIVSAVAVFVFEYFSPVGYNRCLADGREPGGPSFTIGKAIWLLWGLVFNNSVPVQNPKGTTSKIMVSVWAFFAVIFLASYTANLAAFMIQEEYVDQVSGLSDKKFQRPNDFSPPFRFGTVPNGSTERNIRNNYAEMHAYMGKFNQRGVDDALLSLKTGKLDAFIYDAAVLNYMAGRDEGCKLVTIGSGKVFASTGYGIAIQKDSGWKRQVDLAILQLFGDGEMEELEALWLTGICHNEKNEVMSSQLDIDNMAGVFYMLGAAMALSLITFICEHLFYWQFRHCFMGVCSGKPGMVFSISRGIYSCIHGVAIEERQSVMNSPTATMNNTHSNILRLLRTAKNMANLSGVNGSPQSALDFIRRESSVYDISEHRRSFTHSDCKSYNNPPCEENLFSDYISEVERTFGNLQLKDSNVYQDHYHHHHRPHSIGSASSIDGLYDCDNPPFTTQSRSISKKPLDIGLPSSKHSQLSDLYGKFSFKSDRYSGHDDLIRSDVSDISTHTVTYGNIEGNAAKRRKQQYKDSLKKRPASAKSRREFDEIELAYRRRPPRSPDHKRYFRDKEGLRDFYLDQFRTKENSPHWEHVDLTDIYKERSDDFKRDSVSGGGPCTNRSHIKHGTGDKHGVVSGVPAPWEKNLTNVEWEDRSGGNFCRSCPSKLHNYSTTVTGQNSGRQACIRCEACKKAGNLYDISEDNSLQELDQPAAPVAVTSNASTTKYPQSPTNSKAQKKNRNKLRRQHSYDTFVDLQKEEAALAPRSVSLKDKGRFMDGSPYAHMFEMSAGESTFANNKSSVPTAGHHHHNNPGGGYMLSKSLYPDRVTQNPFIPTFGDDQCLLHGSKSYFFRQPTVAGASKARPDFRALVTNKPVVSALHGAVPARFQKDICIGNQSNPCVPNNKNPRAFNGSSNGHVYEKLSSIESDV
T3 sequence (Q12879 23-1464, other chains not shown): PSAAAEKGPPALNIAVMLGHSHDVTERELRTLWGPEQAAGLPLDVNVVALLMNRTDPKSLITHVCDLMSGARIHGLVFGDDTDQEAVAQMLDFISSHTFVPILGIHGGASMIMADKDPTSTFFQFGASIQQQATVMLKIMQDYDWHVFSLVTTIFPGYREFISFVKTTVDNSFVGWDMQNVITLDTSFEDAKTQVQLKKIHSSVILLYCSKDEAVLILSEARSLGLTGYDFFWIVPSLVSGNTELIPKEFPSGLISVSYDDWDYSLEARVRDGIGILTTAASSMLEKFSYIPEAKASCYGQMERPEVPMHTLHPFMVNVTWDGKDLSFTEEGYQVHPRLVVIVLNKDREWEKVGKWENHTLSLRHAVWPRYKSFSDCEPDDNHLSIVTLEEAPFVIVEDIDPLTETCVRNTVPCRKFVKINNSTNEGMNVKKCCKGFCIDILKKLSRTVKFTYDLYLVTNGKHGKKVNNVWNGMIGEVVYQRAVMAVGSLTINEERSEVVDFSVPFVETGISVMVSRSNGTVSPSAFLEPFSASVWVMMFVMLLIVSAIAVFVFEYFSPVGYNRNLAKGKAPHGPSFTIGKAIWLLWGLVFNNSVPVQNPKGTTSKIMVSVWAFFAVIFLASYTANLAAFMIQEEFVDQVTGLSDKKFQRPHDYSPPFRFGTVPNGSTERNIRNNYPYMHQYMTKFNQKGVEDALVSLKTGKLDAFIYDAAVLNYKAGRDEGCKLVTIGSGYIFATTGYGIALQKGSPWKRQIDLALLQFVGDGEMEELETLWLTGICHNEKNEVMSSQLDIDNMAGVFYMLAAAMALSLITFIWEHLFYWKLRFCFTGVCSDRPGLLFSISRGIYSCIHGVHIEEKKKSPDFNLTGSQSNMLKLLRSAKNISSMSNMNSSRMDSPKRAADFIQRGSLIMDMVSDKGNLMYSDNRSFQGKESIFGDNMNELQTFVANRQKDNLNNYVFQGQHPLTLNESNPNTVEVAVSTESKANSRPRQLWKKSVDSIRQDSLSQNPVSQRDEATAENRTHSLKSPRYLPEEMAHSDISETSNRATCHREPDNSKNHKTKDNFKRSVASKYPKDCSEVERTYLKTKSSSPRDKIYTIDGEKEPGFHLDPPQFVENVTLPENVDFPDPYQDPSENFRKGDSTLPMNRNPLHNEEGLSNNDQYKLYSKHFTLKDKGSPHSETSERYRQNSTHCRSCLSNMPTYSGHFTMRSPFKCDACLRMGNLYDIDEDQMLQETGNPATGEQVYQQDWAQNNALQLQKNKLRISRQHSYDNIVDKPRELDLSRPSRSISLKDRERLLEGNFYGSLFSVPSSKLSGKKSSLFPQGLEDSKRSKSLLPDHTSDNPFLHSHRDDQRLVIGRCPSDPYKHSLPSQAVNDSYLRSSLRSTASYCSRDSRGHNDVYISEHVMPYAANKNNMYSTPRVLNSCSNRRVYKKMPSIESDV
T2 sequence (Q12809 whole entry): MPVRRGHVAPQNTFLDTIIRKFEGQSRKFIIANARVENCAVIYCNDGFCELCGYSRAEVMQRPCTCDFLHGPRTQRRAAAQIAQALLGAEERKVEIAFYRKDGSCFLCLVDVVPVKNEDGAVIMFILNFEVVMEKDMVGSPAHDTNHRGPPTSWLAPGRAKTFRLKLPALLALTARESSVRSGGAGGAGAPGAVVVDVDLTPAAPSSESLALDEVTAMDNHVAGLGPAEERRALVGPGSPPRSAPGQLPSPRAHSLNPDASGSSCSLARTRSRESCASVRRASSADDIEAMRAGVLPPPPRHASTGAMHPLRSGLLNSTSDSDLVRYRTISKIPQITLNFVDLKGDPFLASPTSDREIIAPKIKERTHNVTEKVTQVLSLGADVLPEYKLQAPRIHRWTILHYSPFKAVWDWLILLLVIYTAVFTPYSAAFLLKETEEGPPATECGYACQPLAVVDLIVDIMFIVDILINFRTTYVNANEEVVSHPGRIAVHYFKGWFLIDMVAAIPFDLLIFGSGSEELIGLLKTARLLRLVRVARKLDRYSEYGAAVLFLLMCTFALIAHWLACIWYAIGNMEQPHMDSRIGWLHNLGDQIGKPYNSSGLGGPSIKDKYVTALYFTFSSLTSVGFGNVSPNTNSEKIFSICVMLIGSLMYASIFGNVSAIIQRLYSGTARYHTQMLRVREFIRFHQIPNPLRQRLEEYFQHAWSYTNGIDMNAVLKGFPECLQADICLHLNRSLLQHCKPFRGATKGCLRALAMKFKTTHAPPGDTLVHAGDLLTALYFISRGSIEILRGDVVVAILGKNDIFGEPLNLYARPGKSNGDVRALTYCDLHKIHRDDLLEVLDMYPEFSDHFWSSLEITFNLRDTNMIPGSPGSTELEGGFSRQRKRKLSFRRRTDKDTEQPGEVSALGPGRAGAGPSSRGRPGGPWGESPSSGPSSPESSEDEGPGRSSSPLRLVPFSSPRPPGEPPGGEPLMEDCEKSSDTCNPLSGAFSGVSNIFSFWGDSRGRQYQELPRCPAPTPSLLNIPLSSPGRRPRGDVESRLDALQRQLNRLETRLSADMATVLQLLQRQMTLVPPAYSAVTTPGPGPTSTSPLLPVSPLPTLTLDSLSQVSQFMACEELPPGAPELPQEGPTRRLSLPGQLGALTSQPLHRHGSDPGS

Row | Structure (SMILES) | IC50 [1] [nM] | IC50 [2] [nM] | IC50 [5] [nM] | IC50 [6] | IC50 [3] [nM] | ED50 [4] [mg/kg]
1 | Cc1ccc(OC2CCN(CCS(=O)(=O)c3ccc(O)cc3)CC2)cc1 [Compound 2, 4-[2-(4-p-tolyloxy-piperidin-1-yl)-ethanesulfonyl]-phenol] | < 10 | 16000 | > 10000 | 24 nM and 11 to 24 nM | 4700 | 0.84
2 | O=S(=O)(CCN1CC[C@H](Cc2ccccc2)[C@H](O)C1)c1ccc(O)cc1 [Compound 3, (-)(3S,4S)-4-benzyl-1-[2-(4-hydroxy-benzenesulfonyl)-ethyl]-piperidin-3-ol] | 38 | 55000 | > 10000 | 14 nM and 11 to 24 nM |  | 3.8
3 | Cc1ccc(CC2(O)CCN(CCOc3ccc(O)cc3)CC2)cc1 [Compound 9, 1-[2-(4-hydroxy-phenoxy)-ethyl]-4-(4-methyl-benzyl)-piperidin-4-ol, reference compound] | 3 | 3500 | > 100000 |  | 690 | 2.3

Second part, led by results:

Row | IC50 [1] [nM] | IC50 [2] [nM] | IC50 [5] [nM] | IC50 [6] | Structure (SMILES) | IC50 [3] [nM] | ED50 [4] [mg/kg]
4 | 8 | 88000 | > 10000 | 11 nM and 11 to 24 nM | Cc1ccc(C[C@H]2CCN(CCS(=O)(=O)c3ccc(O)cc3)C[C@H]2O)cc1 (single isomer, unassigned) [Compound 6, (-)(cis)-1-[2-(4-hydroxy-benzenesulfonyl)-ethyl]-4-(4-methyl-benzyl)-piperidin-3-ol] | 3700 | 2.2
5 | < 10 | 42000 | > 10000 | 18 nM and 11 to 24 nM | O=S(=O)(CCN1CCC(Cc2ccccc2)CC1)c1ccc(O)cc1 [Compound 1, 4[-2-(4-benzyl-piperidine-1-yl)-ethanesulfonyl]-phenol] | 4000 | 1.1
